In US11369565B2, “Amino-pyrimidine skeletal muscle modulators” (Cytokinetics, Inc., priority 2010, dated 2022):

These compounds were tested on rabbit skeletal myofibrils (approximately 90% fast fibers) (assay: Activation of fast skeletal myofibrils (PUMA coupled-enzyme ATPase assay at pCa25)). Conditions: concentration at which the compound increased the enzymatic activity by 40%; calcium at pCa25; PM12 buffer pH 6.8.
Type: biochemical
Procedure, shortened: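 In pH 6.8 PM12 buffer (12 mM Pipes, 2 mM MgCl2, 1 mM DTT), ADP from myosin regenerated via pyruvate kinase/lactate dehydrogenase, with absorbance change at 340 nm from NADH oxidation as read-out. Calcium set at pCa25; Triton-washed rabbit skeletal myofibrils (about 90% fast fibres) used.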

| Structure (SMILES) | Mean AC1.4 |
| --- | --- |
| Cc1cccnc1C(C)(C)Nc1ncc(-c2cc(C(N)=O)ccc2F)cn1 [4-fluoro-3-(2-{[1-methyl-1-(3-methyl(2-pyridyl))ethyl]amino}pyrimidin-5-yl)benzamide] | B (B=1-10 uM) |
| CC(C)(CNc1ncc(-c2cc(C(N)=O)ccc2F)cn1)c1ncccc1F [4-fluoro-3-(2-{[2-(3-fluoro(2-pyridyl))-2-methylpropyl]amino}pyrimidin-5-yl)benzamide] | B (B=1-10 uM) |
| NC(=O)c1ccc(F)c(-c2cnc(NCC3(c4ccccn4)CCC3)nc2)c1 [4-fluoro-3-(2-{[(2-pyridylcyclobutyl]methyl]amino}pyrimidin-5-yl)benzamide] | A (A=<1 uM) |
| NC(=O)c1ccc(F)c(-c2cnc(NC3(c4ncccc4F)CCC3)nc2)c1 [4-fluoro-3-(2-{[(3-fluoro(2-pyridyl))cyclobutyl]amino}pyrimidin-5-yl)benzamide] | A (A=<1 uM) |
| NC(=O)c1ccc(F)c(-c2cnc(NC3(c4ccc(F)cc4)CCC3)nc2)c1 [4-fluoro-3-(2-{[(4-fluorophenyl)cyclobutyl]amino}pyrimidin-5-yl)benzamide] | A (A=<1 uM) |
| NC(=O)c1ccc(F)c(-c2cnc(NC[C@]3(c4ncccc4F)C[C@H](F)C3)nc2)c1O [4-fluoro-3-[2-({[3-fluoro)-1-(3-fluoro(2-pyridyl))cyclobutyl]methyl}amino)pyrimidin-5-yl]-2-hydroxybenzamide] | A (A=<1 uM) |
| NC(=O)c1ccc(F)c(-c2cnc(NCC3(c4ncccc4F)CC(F)C3)nc2)c1 (stereo not drawn) [4-fluoro-3-[2-({[3-fluoro-1-(3-fluoro(2-pyridyl))cyclobutyl]methyl}amino)pyrimidin-5-yl]benzamide] | A (A=<1 uM) |
| NC(=O)c1ccc(F)c(-c2cnc(NCC3(c4ncccc4F)CCC3)nc2)c1 [4-fluoro-3-[2-({[(3-fluoro(2-pyridyl))cyclobutyl]methyl}amino)pyrimidin-5-yl]benzamide] | A (A=<1 uM) |
| CC(C)(Nc1ncc(-c2cnnc(C(N)=O)c2)cn1)c1ncccc1Cl [5-(2-{[1-(3-chloro(2-pyridyl))-isopropyl]amino)pyrimidin-5-yl)pyridazine-3-carboxamide] | B (B=1-10 uM) |
| CC(C)(Nc1ncc(-c2nnc(C(N)=O)s2)cn1)c1ncccc1Cl [5-(2-{[1-(3-chloro(2-pyridyl))-isopropyl]amino}pyrimidin-5-yl)-1,3,4-thiadiazole-2-carboxamide] | D (D=>20 uM) |
| CC(C)(Nc1ncc(-c2cnc(C(N)=O)s2)cn1)c1ncccc1Cl [5-(2-{[1-(3-chloro(2-pyridyl))-isopropyl]amino}pyrimidin-5-yl)-1,3-thiazole-2-carboxamide] | B (B=1-10 uM) |
| COc1ncc(-c2cnc(NC(C)(C)c3ncccc3Cl)nc2)cc1C#N [5-(2-{[1-(3-chloro(2-pyridyl))-isopropyl]amino}pyrimidin-5-yl)-2-methoxypyridine-3-carbonitrile] | D (D=>20 uM) |
| COc1ncc(-c2cnc(NC(C)(C)c3ncccc3Cl)nc2)cc1C(N)=O [5-(2-{[1-(3-chloro(2-pyridyl))-isopropyl]amino}pyrimidin-5-yl)-2-methoxypyridine-3-carboxamide] | B (B=1-10 uM) |
| CC(C)(Nc1ncc(-c2c[nH]c(=O)c(C(N)=O)c2)cn1)c1ncccc1Cl [5-(2-{[1-(3-chloro(2-pyridyl))-isopropyl]amino}pyrimidin-5-yl)-2-oxohydropyridine-3-carboxamide] | B (B=1-10 uM) |
| CC(C)(Nc1ncc(-c2cc(C(N)=O)no2)cn1)c1ncccc1Cl [5-(2-{[1-(3-chloro(2-pyridyl))-isopropyl]amino}pyrimidin-5-yl)isoxazole-3-carboxamide] | B (B=1-10 uM) |
| CC(C)(Nc1ncc(-c2cc(C(N)=O)n[nH]2)cn1)c1ncccc1Cl [5-(2-{[1-(3-chloro(2-pyridyl))-isopropyl]amino}pyrimidin-5-yl)pyrazole-3-carboxamide] | C (C=10-20 uM) |
| CC(C)(Nc1ncc(-c2cncc(C(N)=O)c2)cn1)c1ncccc1Cl [5-(2-{[1-(3-chloro(2-pyridyl))-isopropyl]amino}pyrimidin-5-yl)pyridine-3-carboxamide] | B (B=1-10 uM) |
| CC(C)(Nc1ncc(-c2ccc(C(N)=O)s2)cn1)c1ncccc1Cl [5-(2-{[1-(3-chloro(2-pyridyl))-isopropyl]amino}pyrimidin-5-yl)thiophene-2-carboxamide] | B (B=1-10 uM) |
| CC(C)(Nc1ncc(-c2ccc(C(=O)O)s2)cn1)c1ncccc1Cl [5-(2-{[1-(3-chloro(2-pyridyl))-isopropyl]amino}pyrimidin-5-yl)thiophene-2-carboxylic acid] | D (D=>20 uM) |
| Cn1nc(C(N)=O)cc1-c1cnc(NC(C)(C)c2ncccc2Cl)nc1 [5-(2-{[1-(3-chloro(2-pyridyl))-isopropyl}amino}pyrimidin-5-yl)-1-methylpyrazole-3-carboxamide] | D (D=>20 uM) |
| CC(C)(CNc1ncc(-c2ccc3[nH]c(=O)[nH]c3c2)cn1)c1ccc(F)cc1 [5-(2-{[2-(4-fluorophenyl)-2-methylpropyl]amino}pyrimidin-5-yl)-3-hydrobenzimidazol-2-one] | B (B=1-10 uM) |
| CC(C)(CNc1ncc(-c2cncc(C#N)c2)cn1)c1ccc(F)cc1 [5-(2-{[2-(4-fluorophenyl)-2-methylpropyl]amino}pyrimidin-5-yl)pyridine-3-carbonitrile] | B (B=1-10 uM) |
| CC(C)(CNc1ncc(-c2cncc(C(N)=O)c2)cn1)c1ccc(F)cc1 [5-(2-{[2-(4-fluorophenyl)-2-methylpropyl]amino}pyrimidin-5-yl)pyridine-3-carboxamide] | B (B=1-10 uM) |
| N#Cc1n[nH]c2ccc(-c3cnc(NC4(c5ncccc5F)CCC4)nc3)cc12 [5-(2-{[(3-fluoro-2-pyridyl)cyclobutyl]amino}pyrimidin-5-yl)-1H-indazole-3-carbonitrile] | B (B=1-10 uM) |
| NC(=O)c1n[nH]c2ccc(-c3cnc(NC4(c5ncccc5F)CCC4)nc3)cc12 [5-(2-{[(3-fluoro-2-pyridyl)cyclobutyl]amino}pyrimidin-5-yl)-1H-indazole-3-carboxamide] | A (A=<1 uM) |
| NC(=O)c1nc2cnc(NCC3(c4ncccc4F)CCC3)nc2s1 [5-({[(3-fluoro-2-pyridyl)cyclobutyl]methyl}amino)-1,3-thiazolo[5,4-d]pyrimidine-2-carboxamide] | C (C=10-20 uM) |
| O=C(O)c1nc2cnc(NCC3(c4ncccc4F)CCC3)nc2s1 [5-({[(3-fluoro-2-pyridyl)cyclobutyl]methyl}amino)-1,3-thiazolo[5,4-d]pyrimidine-2-carboxylic acid] | D (D=>20 uM) |
| CC(C)(CNc1ncc(Br)cn1)c1ccc(F)cc1 [5-Bromo-N-(2-(4-fluorophenyl)-2-methylpropyl)pyrimidin-2-amine] | D (D=>20 uM) |
| NC(=O)c1cc(-c2cnc(NC[C@]3(c4ncccc4F)C[C@H](F)C3)nc2)ccc1O [5-[2-({[3-fluoro-1-(3-fluoro(2-pyridyl))cyclobutyl]methyl)amino)pyrimidin-5-yl]-2-hydroxybenzamide] | A (A=<1 uM) |
| O=c1[nH]cc(-c2cnc(NC[C@]3(c4ncccc4F)C[C@H](F)C3)nc2)c(=O)[nH]1 [5-[2-({[3-fluoro-1-(3-fluoro(2-pyridyl))cyclobutyl]methyl}amino)pyrimidin-5-yl]-1,3-dihydropyrimidine-2,4-dione] | D (D=>20 uM) |
